From PubChem BioAssay (NCI)
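Protocol summary: plate cells (96-well), add compound at 5 concentrations, incubate 48 h, interpolate endpoints linearly. At the TGI there is no net growth.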

Assays:
Assay in all cases: DTP human tumour cell line panel, 48 h
HS 578T breast = test system: HS 578T breast
MALME-3M melanoma = test system: MALME-3M melanoma
SW-620 colon = test system: SW-620 colon
HT29 colon = test system: HT29 colon
A549 NSCLC = test system: A549 NSCLC
UACC-62 melanoma = test system: UACC-62 melanoma
RXF 393 renal = test system: RXF 393 renal
NCI/ADR-RES ovarian = test system: NCI/ADR-RES ovarian
NCI-H522 lung = test system: NCI-H522 lung
SK-OV-3 ovarian = test system: SK-OV-3 ovarian
NCI-H460 lung = test system: NCI-H460 lung
SNB-19 CNS = test system: SNB-19 CNS
TK-10 renal = test system: TK-10 renal
U251 CNS = test system: U251 CNS
T-47D breast = test system: T-47D breast
IGROV1 ovarian = test system: IGROV1 ovarian
SN12C renal = test system: SN12C renal
OVCAR-8 ovarian = test system: OVCAR-8 ovarian
OVCAR-5 ovarian = test system: OVCAR-5 ovarian
COLO 205 colon = test system: COLO 205 colon
HOP-92 NSCLC = test system: HOP-92 NSCLC
SF-295 CNS = test system: SF-295 CNS
786-0 renal = test system: 786-0 renal
A498 renal = test system: A498 renal
CAKI-1 renal = test system: CAKI-1 renal
OVCAR-4 ovarian = test system: OVCAR-4 ovarian
NCI-H226 lung = test system: NCI-H226 lung
HL-60(TB) leukemia = test system: HL-60(TB) leukemia
HCT-15 colon = test system: HCT-15 colon
HCC-2998 colon = test system: HCC-2998 colon
MCF7 breast = test system: MCF7 breast
M14 melanoma = test system: M14 melanoma
BT-549 breast = test system: BT-549 breast
MDA-N = test system: MDA-N
SF-268 CNS = test system: SF-268 CNS
OVCAR-3 ovarian = test system: OVCAR-3 ovarian
SK-MEL-2 melanoma = test system: SK-MEL-2 melanoma
DU-145 prostate = test system: DU-145 prostate
LOX IMVI melanoma = test system: LOX IMVI melanoma
CCRF-CEM leukemia = test system: CCRF-CEM leukemia
PC-3 prostate = test system: PC-3 prostate
MDA-MB-435 = test system: MDA-MB-435
ACHN renal = test system: ACHN renal
MDA-MB-231 breast = test system: MDA-MB-231 breast
HOP-62 NSCLC = test system: HOP-62 NSCLC
SK-MEL-5 melanoma = test system: SK-MEL-5 melanoma
UACC-257 melanoma = test system: UACC-257 melanoma
MOLT-4 leukemia = test system: MOLT-4 leukemia
NCI-H23 lung = test system: NCI-H23 lung
SR leukemia = test system: SR leukemia
EKVX NSCLC = test system: EKVX NSCLC
HCT-116 colon = test system: HCT-116 colon
SK-MEL-28 melanoma = test system: SK-MEL-28 melanoma
RPMI-8226 leukemia = test system: RPMI-8226 leukemia
K-562 leukemia = test system: K-562 leukemia
SF-539 CNS = test system: SF-539 CNS

Measured: TGI

COc1cc2c(cc1OC)C(=O)N(c1ccc(O)cc1)C2=O
> 100 µM: HS 578T breast | MALME-3M melanoma | SW-620 colon | HT29 colon | A549 NSCLC | UACC-62 melanoma | RXF 393 renal | NCI/ADR-RES ovarian | NCI-H522 lung | SK-OV-3 ovarian | NCI-H460 lung | SNB-19 CNS | TK-10 renal | U251 CNS | T-47D breast | IGROV1 ovarian | SN12C renal | OVCAR-8 ovarian | OVCAR-5 ovarian | COLO 205 colon | HOP-92 NSCLC | SF-295 CNS | 786-0 renal | A498 renal | CAKI-1 renal | OVCAR-4 ovarian | NCI-H226 lung | HL-60(TB) leukemia | HCT-15 colon | HCC-2998 colon | MCF7 breast | M14 melanoma | BT-549 breast | MDA-N | SF-268 CNS | OVCAR-3 ovarian | SK-MEL-2 melanoma | DU-145 prostate | LOX IMVI melanoma | CCRF-CEM leukemia | PC-3 prostate | MDA-MB-435 | ACHN renal | MDA-MB-231 breast | HOP-62 NSCLC | SK-MEL-5 melanoma | UACC-257 melanoma | MOLT-4 leukemia | NCI-H23 lung | SR leukemia | EKVX NSCLC | HCT-116 colon | SK-MEL-28 melanoma | RPMI-8226 leukemia | K-562 leukemia | SF-539 CNS
